Results reported in patent publication US8124764B2, “Fused heterocyclyc inhibitor compounds” (Gilead Sciences, Inc., priority 2008, dated 2012).

Key:
[1] = target: HDAC 1 (Homo sapiens, UniProt Q13547); assay: HDAC 1 inhibition assay with about 3 hours enzyme/compound preincubation (fluorophore/quencher peptide substrate); format: biochemical; conditions: 3-hour preincubation of enzyme with compound; read-out: HDAC 1 inhibitory activity (IC50 [μM]) (3-hour preincubation)
Experimental: HDAC inhibitory activity of the compound of Example 1 was measured by two types of assays in which HDAC 1 was used as a target molecule. The first assay was carried out without preincubation after addition of the enzyme. The test compound was suspended in and titrated in dmso. It was then spotted into a 384-well test plate. The enzyme, HDAC 1, was diluted in assay buffer containing 25 mM Tris-HCl (pH 8.0), 137 mM NaCl, 2.7 mM KCl, and 0.01% Tween-20 and added to the pre-spotted compound. The peptide substrate containing a fluorophore/quencher pair was diluted in the same assay buffer and added to the compound/enzyme mix initiating the reaction. The reaction incubated at room temperature for about 45 minutes. A concentrated developer solution was diluted in the assay buffer, and added to the reaction. The reaction was incubated at room temperature for about 15 minutes and relative fluorescence was read on an instrument reader.
The second assay is similar to the first assay described above, except that preincubation is carried out for about 3 hours after the enzyme is introduced. The test compound was suspended in, and titrated in DMSO. It was then spotted into a 384-well test plate. The enzyme, HDAC 1, was diluted in the same assay buffer as used in the previous assay and added to the pre-spotted compound. The enzyme/compound mix was incubated at room temperature for about 3 hours. The peptide substrate containing a fluorophore/quencher pair was diluted in the assay buffer and added to the compound/enzyme mix initiating the reaction. The reaction incubated at room temperature for 45 minutes. A concentrated developer solution was diluted in the assay buffer, and added to the reaction. The reaction was incubated at room temperature for about 15 minutes and relative fluorescence was read on an instrument reader.

[2] = target: CDK2 (Homo sapiens, UniProt P24941); assay: CDK2 inhibition; format: biochemical

HDAC 1, sequence (Q13547 whole entry, species assumed): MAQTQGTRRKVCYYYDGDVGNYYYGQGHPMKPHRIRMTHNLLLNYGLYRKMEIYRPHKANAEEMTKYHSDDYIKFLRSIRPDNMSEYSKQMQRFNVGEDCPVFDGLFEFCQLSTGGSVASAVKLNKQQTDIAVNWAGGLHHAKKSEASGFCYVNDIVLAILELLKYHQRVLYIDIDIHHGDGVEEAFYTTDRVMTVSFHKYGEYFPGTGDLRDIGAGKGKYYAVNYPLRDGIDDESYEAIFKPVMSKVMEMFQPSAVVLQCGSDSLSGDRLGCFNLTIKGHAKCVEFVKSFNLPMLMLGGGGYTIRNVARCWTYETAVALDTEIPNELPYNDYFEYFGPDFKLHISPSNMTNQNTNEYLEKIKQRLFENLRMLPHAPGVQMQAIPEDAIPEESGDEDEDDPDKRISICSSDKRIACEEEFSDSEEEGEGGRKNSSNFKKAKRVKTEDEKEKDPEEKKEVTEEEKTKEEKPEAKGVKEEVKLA

Structure (SMILES)	IC50 [1]	IC50 [2]
Cc1nc2ccccn2c1-c1ccnc(Nc2ccc(C(=O)NO)cc2)n1 [Example 1, N-Hydroxy-4-(4-(2-methylimidazo[1,2-a]pyridin-3-yl)-pyrimidin-2-ylamino)-benzamide]	0.067 µM	0.044 µM
Cc1nc2ccccn2c1-c1ccnc(Nc2cccc(C(=O)NO)c2)n1 [Example 3, N-Hydroxy-3-[4-(2-methyl-imidazo[1,2-a]pyridin-3-yl)-pyrimidin-2-ylamino]-benzamide]	0.011 µM	0.18 µM
Cc1nc2ccccn2c1-c1ccnc(Nc2cccc(C(=O)Nc3ccccc3N)c2)n1 [Example 4, N-(2-Amino-phenyl)-3-[4-(2-methyl-imidazo[1,2-a]pyridin-3-yl)-pyrimidin-2-ylamino]-benzamide]	> 50 µM	
O=C(NO)c1ccc(Nc2nccc(-c3cnc4ccccn34)n2)cc1 [Example 5, N-Hydroxy-4-(4-imidazo[1,2-a]pyridin-3-yl-pyrimidin-2-ylamino)-benzamide]	0.02 µM	0.0393 µM
Nc1ccccc1NC(=O)c1ccc(Nc2nccc(-c3cnc4ccccn34)n2)cc1 [Example 6, N-(2-Amino-phenyl)-4-(4-imidazo[1,2-a]pyridin-3-yl-pyrimidin-2-ylamino)-benzamide]	0.197 µM	0.084 µM
O=C(NO)c1cccc(Nc2nccc(-c3cnc4ccccn34)n2)c1 [Example 7, N-Hydroxy-3-(4-imidazo[1,2-a]pyridin-3-yl-pyrimidin-2-ylamino)-benzamide]	0.017 µM	0.069 µM
Nc1ccccc1NC(=O)c1cccc(Nc2nccc(-c3cnc4ccccn34)n2)c1 [Example 8, N-(2-Amino-phenyl)-3-(4-imidazo[1,2-a]pyridin-3-yl-pyrimidin-2-ylamino)-benzamide]	> 50 µM	0.144 µM
Cc1nc2ccc(C(F)(F)F)cn2c1-c1ccnc(Nc2ccc(C(=O)NO)cc2)n1 [Example 11, N-Hydroxy-4-[4-(2-methyl-6-trifluoromethyl-imidazo[1,2-a]pyridin-3-yl)-pyrimidin-2-ylamino]-benzamide]	0.089 µM	0.07 µM
COc1ccn2c(-c3ccnc(Nc4ccc(C(=O)NO)cc4)n3)c(C)nc2c1 [Example 13, N-Hydroxy-4-[4-(7-methoxy-2-methyl-imidazo[1,2-a]pyridin-3-yl)-pyrimidin-2-ylamino]-benzamide]	0.04 µM	0.04 µM
O=C(NO)c1ccc(Nc2nccc(-c3c(C(F)(F)F)nc4ccccn34)n2)cc1 [Example 15, N-Hydroxy-4-[4-(2-trifluoromethyl-imidazo[1,2-a]pyridin-3-yl)-pyrimidin-2-ylamino]-benzamide]	0.0818 µM	0.18 µM
Cc1nc2cccnn2c1-c1ccnc(Nc2ccc(C(=O)NO)cc2)n1 [Example 17, N-Hydroxy-4-[4-(2-methyl-imidazo[1,2-b]pyridazin-3-yl)-pyrimidin-2-ylamino]-benzamide]	0.273 µM	0.034 µM
Cc1nc2cnccn2c1-c1ccnc(Nc2ccc(C(=O)NO)cc2)n1 [Example 19, N-Hydroxy-4-[4-(2-methyl-imidazo[1,2-a]pyrazin-3-yl)-pyrimidin-2-ylamino]-benzamide]	0.0937 µM	0.07 µM
Cc1nc2ncccn2c1-c1ccnc(Nc2ccc(C(=O)NO)cc2)n1 [Example 21, N-Hydroxy-4-[4-(2-methyl-imidazo[1,2-a]pyrimidin-3-yl)-pyrimidin-2-ylamino]-benzamide]	0.289 µM	1.18 µM
Cc1nc2ncccn2c1-c1ccnc(Nc2ccc(C(=O)Nc3ccccc3N)cc2)n1 [Example 22, N-(2-Amino-phenyl)-4-[4-(2-methyl-imidazo[1,2-a]pyrimidin-3-yl)-pyrimidin-2-ylamino]-benzamide]	0.071 µM	2.87 µM
Cc1nc2cc(N3CCOCC3)ccn2c1-c1ccnc(Nc2ccc(C(=O)Nc3ccccc3N)cc2)n1 [Example 23, N-(2-Amino-phenyl)-4-[4-(2-methyl-7-morpholin-4-yl-imidazo[1,2-a]pyridin-3-yl)-pyrimidin-2-ylamino]-benzamide]	5.29 µM	0.67 µM
Cc1nc2cc(C(=O)NCCN3CCOCC3)ccn2c1-c1ccnc(Nc2ccc(C(=O)Nc3ccccc3N)cc2)n1 [Example 25, 3-(2-(4-(2-aminophenylcarbamoyl)phenylamino)pyrimidin-4-yl)-2-methyl-N-(2-morpholinoethyl)imidazo[1,2-a]pyridine-7-carboxamide]	0.128 µM	1.03 µM
Cc1nc2cc(C(=O)N3CCN(C)CC3)ccn2c1-c1ccnc(Nc2ccc(C(=O)Nc3ccccc3N)cc2)n1 [Example 27, N-(2-Amino-phenyl)-4-{4-[2-methyl-7-(4-methyl-piperazine-1-carbonyl)-imidazo[1,2-a]pyridin-3-yl]-pyrimidin-2-ylamino}-benzamide]	0.374 µM	4.64 µM
Cc1nc2ccccn2c1-c1ccnc(Nc2nnc(C(=O)NO)s2)c1 [Example 75, N-hydroxy-5-(4-(2-methylimidazo[1,2-a]pyridin-3-yl)pyridin-2-ylamino)-1,3,4-thiadiazole-2-carboxamide]	0.669 µM	
Cc1nc2ccccn2c1-c1ccnc(Nc2cnc(C(=O)NO)cn2)c1 [Example 76, N-hydroxy-5-(4-(2-methylimidazo[1,2-a]pyridin-3-yl)pyridin-2-ylamino)pyrazine-2-carboxamide]	0.526 µM	
COc1ccn2c(-c3ccnc(Nc4ccc(C(=O)NO)cn4)c3)c(C)nc2c1 [Example 77, N-hydroxy-6-(4-(7-methoxy-2-methylimidazo[1,2-a]pyridin-3-yl)pyridin-2-ylamino)nicotinamide]	0.18 µM	

The remaining lines, values ahead:

IC50 [1]	IC50 [2]	Structure (SMILES)
0.146 µM	0.134 µM	Cc1nc2ccccn2c1-c1ccnc(Nc2ccc(C(=O)Nc3ccccc3N)cc2)n1 [Example 2, N-(2-Amino-phenyl)-4-(4-(2-methylimidazo[1,2-a]pyridin-3-yl)-pyrimidin-2-ylamino)-benzamide]
0.0392 µM	0.037 µM	Cc1nc2cc(C(F)(F)F)ccn2c1-c1ccnc(Nc2ccc(C(=O)NO)cc2)n1 [Example 9, N-Hydroxy-4-[4-(2-methyl-7-trifluoromethyl-imidazo[1,2-a]pyridin-3-yl)-pyrimidin-2-ylamino]-benzamide]
> 10 µM	0.084 µM	Cc1nc2cc(C(F)(F)F)ccn2c1-c1ccnc(Nc2ccc(C(=O)Nc3ccccc3N)cc2)n1 [Example 10, N-(2-Amino-phenyl)-4-[4-(2-methyl-7-trifluoromethyl-imidazo[1,2-a]pyridin-3-yl)-pyrimidin-2-ylamino]-benzamide]
> 10 µM	0.32 µM	Cc1nc2ccc(C(F)(F)F)cn2c1-c1ccnc(Nc2ccc(C(=O)Nc3ccccc3N)cc2)n1 [Example 12, N-(2-Amino-phenyl)-4-[4-(2-methyl-6-trifluoromethyl-imidazo[1,2-a]pyridin-3-yl)-pyrimidin-2-ylamino]-benzamide]
~0.09 µM	0.06 µM	COc1ccn2c(-c3ccnc(Nc4ccc(C(=O)Nc5ccccc5N)cc4)n3)c(C)nc2c1 [Example 14, N-(2-Amino-phenyl)-4-[4-(7-methoxy-2-methyl-imidazo[1,2-a]pyridin-3-yl)-pyrimidin-2-ylamino]-benzamide]
0.295 µM	0.16 µM	Nc1ccccc1NC(=O)c1ccc(Nc2nccc(-c3c(C(F)(F)F)nc4ccccn34)n2)cc1 [Example 16, N-(2-Amino-phenyl)-4-[4-(2-trifluoromethyl-imidazo[1,2-a]pyridin-3-yl)-pyrimidin-2-ylamino]-benzamide]
0.0239 µM	0.59 µM	Cc1nc2cccnn2c1-c1ccnc(Nc2ccc(C(=O)Nc3ccccc3N)cc2)n1 [Example 18, N-(2-Amino-phenyl)-4-[4-(2-methyl-imidazo[1,2-b]pyridazin-3-yl)-pyrimidin-2-ylamino]-benzamide]
0.165 µM	0.9 µM	Cc1nc2cnccn2c1-c1ccnc(Nc2ccc(C(=O)Nc3ccccc3N)cc2)n1 [Example 20, N-(2-Amino-phenyl)-4-[4-(2-methyl-imidazo[1,2-a]pyrazin-3-yl)-pyrimidin-2-ylamino]-benzamide]
0.18 µM	0.5 µM	Cc1nc2cc(C#N)ccn2c1-c1ccnc(Nc2ccc(C(=O)Nc3ccccc3N)cc2)n1 [Example 24, N-(2-Amino-phenyl)-4-[4-(7-cyano-2-methyl-imidazo[1,2-a]pyridin-3-yl)-pyrimidin-2-ylamino]-benzamide]
> 10 µM	0.53 µM	COC(=O)c1ccn2c(-c3ccnc(Nc4ccc(C(=O)Nc5ccccc5N)cc4)n3)c(C)nc2c1 [Example 26, Methyl 3-(2-(4-(2-aminophenylcarbamoyl)phenylamino)pyrimidin-4-yl)-2-methylimidazo[1,2-a]pyridine-7-carboxylate]
0.621 µM	2.53 µM	Cc1nc2cc(C(=O)O)ccn2c1-c1ccnc(Nc2ccc(C(=O)Nc3ccccc3N)cc2)n1 [Example 28, 3-{2-[4-(2-Amino-phenylcarbamoyl)-phenylamino]-pyrimidin-4-yl}-2-methyl-imidazo[1,2-a]pyridine-7-carboxylic acid]
